The values that follow come from patent publication US8163909B2, “Substituted hydroxyethyl amine compounds as beta-secretase modulators and methods of use” (Amgen Inc., priority 2007, dated 2012).

Read-outs that look alike come from different tables or passages of the source.

For test [1], the target named is Beta Secretase enzyme (BACE) (Homo sapiens, UniProt P56817). Put plainly: In vitro enzymatic BACE FRET (fluorescence resonance energy transfer) assay.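 Also: fluorescence read after 1 h with 50 nM quenched peptide substrate spanning the BACE cleavage site, in pH 4.2 acetate buffer containing 10% DMSO and nonionic detergent.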 The test is classed as biochemical.
Beta Secretase enzyme (BACE), sequence (P56817 46-501): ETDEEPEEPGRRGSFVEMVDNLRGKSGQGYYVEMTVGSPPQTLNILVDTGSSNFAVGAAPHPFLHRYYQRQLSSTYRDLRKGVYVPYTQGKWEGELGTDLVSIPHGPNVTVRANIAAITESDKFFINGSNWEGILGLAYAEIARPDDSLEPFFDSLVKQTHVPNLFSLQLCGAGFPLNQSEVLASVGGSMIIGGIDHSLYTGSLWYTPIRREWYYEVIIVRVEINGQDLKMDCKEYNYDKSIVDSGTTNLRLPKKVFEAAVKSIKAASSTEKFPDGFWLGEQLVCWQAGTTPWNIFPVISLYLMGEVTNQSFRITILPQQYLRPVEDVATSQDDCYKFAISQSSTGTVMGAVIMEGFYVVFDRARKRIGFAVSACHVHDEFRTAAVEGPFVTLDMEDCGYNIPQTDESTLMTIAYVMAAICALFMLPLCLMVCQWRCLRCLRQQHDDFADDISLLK
Test [2] concerns Aβ40 in conditioned medium of cells stably expressing Amyloid Precursor Protein (APP). Put plainly: In vitro BACE cell-based assay (Aβ40 in conditioned medium, sandwich ELISA).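 Also: compounds added as a dilution series, secreted peptide quantified by europium time-resolved fluorescence readout, potency fitted from percent of control versus compound concentration.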
[3] abbreviates: BACE enzyme assay, read-out: BACE1 FRET assay (IC50).
Setting [4] is: Homo sapiens, HEK293, HEK cells, cell-based assay, read-out: HEK cell assay (IC50).
Setting [5] is: BACE enzyme FRET assay, read-out: BACE1 FRET assay (IC50).
Setting [6] is: HEK cells, cell-based assay, read-out: HEK cell assay (IC50).

As to `C[C@H](F)C(=O)N[C@@H](Cc1ccc2c(c1)OCO2)[C@H](O)CN[C@H]1CC2(CCC2)Oc2ncc(CC(C)(C)C)cc21` [Example 483], the IC50 in test [1] (Table 2, read-out: BACE1 FRET assay) amounted to 18 nM; in test [2] (Homo sapiens, HEK293, Table 2, HEK cells, read-out: HEK cell assay) it was 49 nM.
As for `C[C@@H](O)C(=O)N[C@@H](Cc1ccc(F)cc1)[C@H](O)CN[C@H]1CC2(CCC2)Oc2ncc(CC(C)(C)C)cc21` [compound 157], the IC50 in test [1] (setting [3]) worked out at 15.1 nM; in test [2] (setting [4]) it was 21.7 nM.
For `COC(=O)N[C@@H](Cc1ccc2c(c1)OCO2)[C@H](O)CN[C@H]1CC2(CCC2)Oc2ncc(CC(C)(C)C)cc21` [compound 289], the results for the IC50 in test [1] (setting [5]) and in test [2] (setting [4]) were 77.5 nM and 196 nM, respectively.
In the same order, the values of `COC(C)C(=O)NC(Cc1ccc2c(c1)OCO2)C(O)CNC1CC2(CC(O)C2)Oc2ncc(CC(C)C)cc21` [compound 248, (2R)—N-((1S,2R)-1-(1,3-benzodioxol-5-ylmethyl)-2-hydroxy-3-(((1s,3S,4′S)-3-hydroxy-6′-(2-methylpropyl)-3′,4′-dihydrospiro[cyclobutane-1,2′-pyrano[2,3-b]pyridin]-4′-yl)amino)propyl)-2-(methyloxy)propanamide] are 17.2 nM and 35 nM.
The like results for `CC(=O)N[C@@H](Cc1ccc2c(c1)OCO2)[C@H](O)CN[C@H]1CC2(CCC2)Oc2cnc(C(F)(F)F)cc21` [compound 265] were, in that order, 9600 nM and 388 nM.
In the same order, the values of `CO[C@H](C)C(=O)N[C@@H](Cc1cccc(F)c1)[C@H](O)CN[C@H]1CC2(CCC2)Oc2ncc(CC(C)(C)C(F)F)cc21` [compound 219] are 5.08 nM and 5.99 nM.
Regarding `COCC(=O)N[C@@H](Cc1ccc2c(c1)OCO2)[C@H](O)CN[C@H]1CC2(CCC2)Oc2cnc(CC(C)(C)C)cc21` [compound 119], the IC50 turned out to be 203 nM in test [1] (setting [3]) and 127 nM in test [2] (setting [4]).
`CO[C@@H](C)C(=O)N[C@@H](Cc1ccc2c(c1)OCO2)[C@H](O)CN[C@H]1CC2(CCC2)Oc2ncc([C@H](F)C(C)(C)C)cc21` [compound 331]: the IC50 came to 51.5 nM in test [1] (Table 1, read-out: BACE1 FRET assay) and 44.6 nM in test [2] (Homo sapiens, HEK293, Table 1, HEK cells, read-out: HEK cell assay).
Consider `CC(C)(C)Cc1cnc2c(c1)[C@@H](NC[C@@H](O)[C@H](Cc1ccc(F)c(OC(F)(F)F)c1)NC(=O)C(F)(F)F)CC1(CCC1)O2` [compound 82], for which the figures for the IC50 in test [1] (setting [3]) and in test [2] (setting [4]) were 2.83 nM and 523 nM, respectively.
Regarding `CC(=O)N[C@@H](Cc1cc(Cl)c2c(c1)OCO2)[C@H](O)CN[C@H]1CC2(CCC2)Oc2ncc(CC(C)(C)C)cc21` [compound 207], the IC50 was 6.63 nM in test [1] (setting [5]) and 14.2 nM in test [2] (setting [4]).
In the case of `CC(=O)N[C@@H](Cc1ccc2c(c1)OCO2)[C@H](O)CN[C@H]1CC2(CC(F)(F)C2)Oc2ncc(CC(C)(C)C)cc21` [compound 55], the IC50 was 23.6 nM in test [1] (setting [3]) and 83 nM in test [2] (setting [4]).
For the compound `COCC(=O)N[C@@H](Cc1cc(Cl)c2c(c1)OCO2)[C@H](O)CN[C@H]1CC2(CCC2)Oc2ncc(CC(C)(C)C)cc21` [compound 208], the IC50 came to 6.41 nM in test [1] (setting [5]) and 9.96 nM in test [2] (setting [4]).
In the case of `CNc1nc(CC(C)(C)C)cc2c1OC1(CCC1)C[C@@H]2NC[C@@H](O)[C@H](Cc1cccc(F)c1)NC(=O)[C@@H](C)OC` [compound 139], the IC50 was 42 nM in test [1] (setting [3]) and 8.99 nM in test [2] (setting [4]).
In the case of `CCNc1cc(Br)cc2c1OC1(CCC1)C[C@@H]2NC[C@@H](O)[C@H](Cc1cccc(F)c1)NC(=O)COC` [compound 270], the results for the IC50 in test [1] (setting [5]) and in test [2] (setting [4]) were 448 nM and 157 nM, respectively.
With `COCC(=O)N[C@@H](Cc1ccc(F)cc1)[C@H](O)CN[C@H]1CC2(CCC2)Oc2ccc(CC(C)(C)C#N)cc21` [compound 162], the IC50 turned out to be 44.6 nM in test [1] (setting [3]) and 31.1 nM in test [2] (setting [4]).
`COC(C(=O)N[C@@H](Cc1ccc(F)cc1)[C@H](O)CN[C@H]1CC2(CCC2)Oc2ncc(CC(C)(C)C)cc21)C(F)(F)F` (some centres unmarked) [compound 59]: the IC50 in test [1] (setting [3]) is 364 nM; in test [2] (setting [4]), 171 nM.
In the same order, the values of `COCC(=O)N[C@@H](Cc1cc(F)cc(F)c1)[C@H](O)CN[C@H]1CC2(CCCC2)C(=O)c2ccc(CC(C)(C)C)cc21` [compound 89] are 4.95 nM and 58.6 nM.
For `CC(=O)N[C@@H](Cc1ccccc1)[C@H](O)CN[C@H]1CC2(CCC2)Oc2ncc(CC3CC3)cc21` [compound 202], the results for the IC50 in test [1] (setting [5]) and in test [2] (setting [4]) were 34.2 nM and 65.9 nM, respectively.
For the compound `CO[C@H](C)C(=O)N[C@@H](Cc1ccc(F)cc1)[C@H](O)CN[C@H]1CC2(CCC2)Oc2c(-c3ccncc3)cc(CC(C)(C)F)cc21` [compound 577], the IC50 was determined as 115 nM in test [1] (read-out: BACE1 FRET assay (IC50)) and 57 nM in test [2] (Homo sapiens, HEK293, HEK cells, read-out: HEK cell assay (IC50)).
Turning to `COCC(=O)N[C@@H](Cc1cccc(F)c1)[C@H](O)CN[C@H]1C[C@]2(C[C@H](O)C2)Oc2ncc(CC(C)(C)C)cc21` [compound 232, N-((1S,2R)-3-(((1s,3S,4′S)-6′-(2,2-dimethylpropyl)-3-hydroxy-3′,4′-dihydrospiro[cyclobutane-1,2′-pyrano[2,3-b]pyridin]-4′-yl)amino)-1-((3-fluorophenyl)methyl)-2-hydroxypropyl)-2-(methyloxy)acetamide], the IC50 in test [1] (setting [5]) was found to be 2.34 nM; in test [2] (setting [6]) it was 3.27 nM.
Consider `CC(=O)N[C@@H](Cc1cc(F)cc(F)c1)[C@H](O)CN[C@H]1CC2(CCC2)Oc2ncc(CC(C)(C)C(F)F)cc21` [compound 226], for which the IC50 in test [1] (setting [5]) is 4.15 nM; in test [2] (setting [4]) it was 5.27 nM.
As to `CC(=O)N[C@@H](Cc1cc(F)cc(F)c1)[C@H](O)CN[C@H]1CC2(CCCC2)C(=O)c2ccc(CC(C)(C)C)cc21` [compound 90], the results for the IC50 in test [1] (setting [3]) and in test [2] (setting [4]) were 10.3 nM and 74.7 nM, respectively.
Consider “N-((1S,2R)-1-(4-thiazolylmethyl)-3-(((5′S)-3′-(2,2-dimethylpropyl)-5′,8′-dihydro-6′H-spiro[cyclobutane-1,7′-quinolin]-5′-yl)amino)-2-hydroxypropyl)-2-(methyloxy)acetamide [compound 176]”, for which the IC50 in test [1] (setting [3]) was found to be 10.5 nM; in test [2] (setting [6]), 17 nM.
Consider `COCC(=O)N[C@@H](Cc1cccc(F)c1)[C@H](O)CN[C@H]1CC2(CCC2)Oc2cnc(CC(C)(C)C)cc21` [compound 122], for which the IC50 in test [1] (setting [3]) came out at 7.54 nM; in test [2] (setting [4]) it was 23.1 nM.
Regarding `COCC(=O)N[C@@H](Cc1cccc(F)c1)[C@H](O)CN[C@H]1CC2(CCC2)Oc2ncc(CC(C)(C)C(F)F)cc21` [compound 218], the figures for the IC50 in test [1] (setting [5]) and in test [2] (setting [4]) were 4.38 nM and 5.25 nM, respectively.
In the case of `COCC(=O)N[C@@H](Cc1ccc(F)cc1)[C@H](O)CN[C@H]1CC2(CCC2)Oc2c1cc(CC(C)(C)C)nc2C` [compound 153], the IC50 in test [1] (setting [3]) was 200 nM; in test [2] (setting [4]), 153 nM.
On to `COCC(=O)N[C@@H](Cc1cc(F)cc(-c2nccn2C)c1)[C@H](O)CN[C@H]1CC2(CCC2)Oc2ncc(CC(C)(C)C)cc21` [compound 740, N-((1S,2R)-3-(((4′S)-6′-(2,2-dimethylpropyl)-3′,4′-dihydrospiro[cyclobutane-1,2′-pyrano[2,3-b]pyridin]-4′-yl)amino)-1-(3-fluoro-5-(1-methyl-1H-imidazol-2-yl)benzyl)-2-hydroxypropyl)-2-methoxyacetamide], for which the IC50 turned out to be 51 nM in test [1] (BACE enzyme assay IC50, read-out: BACE1 FRET assay) and 6 nM in test [2] (Homo sapiens, HEK293, HEK cell-based assay IC50, read-out: HEK cell assay).
Regarding `CC(=O)N[C@@H](Cc1ccc(F)cc1)[C@H](O)CN[C@H]1CC2(CCC2)Oc2c1cc(CC(C)(C)C)nc2NCC(F)(F)F` [compound 144], the figures for the IC50 in test [1] (setting [3]) and in test [2] (setting [4]) were 94.4 nM and 634 nM, respectively.
